In PubChem BioAssay AID463206 (Broad Institute, 2010) one finds AC50 data, which are given here for 84 molecules.

SMILES strings stand for the structures. Activity calls are given as the source filed them.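 Rule for the calls: active = caspase luminescence falls with dose and the half-maximal concentration AC50 from the fitted curve is at or below a set limit; inconclusive = flat fit at 30 to 70% signal loss, or invalid fit; inactive = AC50 above the limit, or signal rises instead.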

The test relates to INS-1E cytokine-induced caspase-3/7, Caspase-Glo luminescence, 48 h. Description: inhibitors of cytokine-induced caspase-3/7 activity, dose response, orthogonal assay for beta-cell apoptosis protection project, INS-1E rat cells, luminescence (AID 463206).
Regarding `CCOc1cc(/C=C2\CCC/C(=C\c3cc(Cl)c(O)c(OCC)c3)C2=O)cc(Cl)c1O`, the half-maximal activity concentration (AC50) (usually the midpoint of the concentration-response curve, whichever way the signal moves) was 9.51 µM.

`C/C(=N\NC(=O)C(=O)Nc1cccc(Cl)c1)c1ccncc1`: the AC50 is > 26 µM (inactive). As for `C1=C(CCNc2ncnc3c2[nH]c2ccccc23)CCCC1`, the figure is > 26 µM (inactive); as for `Cc1ccc(OCc2cc(C(=O)N(C)Cc3cc(C4CC4)n[nH]3)no2)cc1C`, > 26 µM (inactive). In the case of `O=C(NCC1COc2ccccc2O1)c1cccc(S(=O)(=O)NCc2ccccc2)c1` (centres undefined) it was > 12 µM (inactive).

For `Clc1ccc2nnnc(-c3ccccc3)c2c1`, the AC50 is > 26 µM (inactive).

In the case of `C#CCn1c(=NC(=O)c2ccc(S(=O)(=O)N3CCc4ccccc4C3)cc2)sc2cc(S(N)(=O)=O)ccc21`, the AC50 is > 26 µM (inactive). In the case of `Cc1ccc(-c2cn(-c3ccc(SC(F)F)cc3)c3[n+]2CCC3)cc1` it was > 26 µM (inactive); in that of `Cc1cc(N/N=C/c2c(O)ccc3ccccc23)nc(-c2ccccc2O)n1`, > 26 µM (inactive). As for `CCCCOc1ccc(C(=O)NNC(=S)NC(=O)CC)cc1`, the figure is > 26 µM (inactive). In the case of `C/C(=N\NC(=O)c1cccc(Br)c1)c1ccccn1` it was > 26 µM (inactive); in that of `CCCC[C@@H](CN[C@H](C)CNC)NCC1CCC(C(C)(C)C)CC1` (some centres undefined), 25.6 µM. On to `COc1cccc(/C=N/Nc2nc3ccccc3n3cnnc23)c1O`, for which the AC50 is > 26 µM (inactive). For the molecule `NS(=O)(=O)c1ccc(N=Nc2ccc(O)c3ncccc23)cc1`, the AC50 is > 26 µM (inactive). For the molecule `Cc1ccc(Nc2nc(NCc3ccco3)c3ccccc3n2)cc1`, the AC50 is > 12 µM (inactive). As for `CCC(C)Sc1ccc(-c2nc3ccc(C)cn3c2NCc2ccccc2)cc1OC` (centres undefined), the figure is > 26 µM (inactive). As for `CCCCCCCNC1=CC(=O)CC(c2ccccc2)C1` (centres undefined), the figure is > 12 µM (inactive); as for `CCCCNc1cc(C)nc(NCc2ccccc2)n1`, > 26 µM (inactive); as for `CCn1cc(/C=C/c2cc[n+](C)cc2)c2ccccc21`, > 26 µM (inactive). On to `C#CCOCCOCCOCCNc1nc(N2CCN(C(=O)CCCCCCCCCCNC(=O)[C@H](CCCCN)n3cc(C)nn3)CC2)nc(N2CCN(C(=O)CCCCCCCCCCNC(=O)[C@H](CCCN=C(N)N)n3cc(C[C@@H](C)CC)nn3)CC2)n1`, for which the AC50 is > 26 µM (inactive). As for `CC(C)NC(=S)NC(c1ccccc1)(c1ccccc1)c1ccccc1`, the figure is > 26 µM (inactive). In the case of `O=C(NCc1cccnc1)Nc1ccc([N+](=O)[O-])cc1` it was > 26 µM (inactive); in that of `C=CCN(CC=C)CC(O)Cn1c2ccccc2c2ccccc21` (centres undefined), > 26 µM (inactive); in that of `CC(C)(C)c1ccc(NNC(=O)C2CCC2)cc1`, > 26 µM (inactive). As for `Cc1[nH]n(-c2ccccc2)c(=O)c1/C=N/NC(=O)COc1ccccc1[N+](=O)[O-]`, the AC50 is > 26 µM (inactive).

Regarding `CCOC(=O)c1c(C)[nH]c(C(=O)OCC(=O)NC(C)(C)C)c1C`, the AC50 is > 26 µM (inactive). As for `CC(=O)OC1COC(OC2C(O)C(C)OC(OC3C(OC4CCC5(C)C(CCC6(C)C5CC=C5C7CC(C)(C)CCC7(C(=O)O)CCC56C)C4(C)CO)OCC(O)C3O)C2O)C(O)C1OC(C)=O` (centres undefined), the figure is > 26 µM (inactive); as for `Cc1ccc(N2C(=O)CSC2c2cccnc2)c(Cl)c1` (centres undefined), > 26 µM (inactive). In the case of `CCCCn1cnc2c(c(-c3ccccc3)c(-c3ccccc3)n2Cc2ccco2)c1=N`, the AC50 was > 26 µM (inactive). In the case of `Cc1[nH]nc2nc(SCC(=O)NCCC3=CCCCC3)n(-c3ccc(Br)cc3)c(=N)c12` it was > 26 µM (inactive).

As to `Cc1ccc(/C=C/C(=O)c2ccc([N+](=O)[O-])o2)cc1`, the AC50 was > 26 µM (inactive). In the case of `Cc1cc(N/N=C/c2ccc(O)cc2O)nc(-n2nc(C)cc2C)n1` it was > 26 µM (inactive); in that of `O=C(NN=C(c1ccccc1)c1ccccn1)c1ccccc1`, > 26 µM (inactive).

Regarding `C=CC(C)(C)c1c(O)c(CC=C(C)C)c(O)c2c(=O)c3ccc(O)c(O)c3oc12`, the AC50 was > 26 µM (inactive).

For `C/C(=N\NC(=O)c1nnn(-c2nonc2N)c1CN(C)c1ccccc1)c1ccccc1O`, the AC50 was > 26 µM (inactive). In the case of `CCCCC(=O)NC(c1ccc(Cl)cc1)c1ccc2cccnc2c1O` (centres undefined) it was > 12 µM (inactive). In the case of `O=C(NC(NC(=S)Nc1ccc(Cl)cc1Cl)C(Cl)(Cl)Cl)c1cccc([N+](=O)[O-])c1` (centres undefined) it was > 26 µM (inactive); in that of `CC(C)Oc1ccc(S(=O)(=O)N2CCCCC2)cc1NC(=O)CN1CCCC1c1cccs1` (centres undefined), > 26 µM (inactive); in that of `Cn1nc([N+](=O)[O-])nc1Sc1cccc2cccnc12`, > 26 µM (inactive). As for `O=C(OCn1ncc(Br)c(Br)c1=O)c1ccccc1Cl`, the figure is > 26 µM (inactive); as for `COc1ccc(Cn2c(SCc3cc(C)ccc3C)nc3cc(OC)c(OC)cc3c2=N)cc1`, > 26 µM (inactive); as for `O=[N+]([O-])c1ccc(-[n+]2ccc3ccccc3c2)c([N+](=O)[O-])c1`, > 26 µM (inactive).

Turning to `C/C(=N/NC(=O)c1ccc(C(C)(C)C)cc1)c1ccccn1`, the AC50 was > 26 µM (inactive). In the case of `C/C(=N\NC(=O)c1nnn(-c2nonc2N)c1CN1CCc2ccccc21)c1ccccc1O` it was > 26 µM (inactive); in that of `Cc1cccc(/C=N/NC(=O)c2ccc3c(c2)OCCO3)c1O`, > 26 µM (inactive); in that of `Cc1cccc(NC(=O)Cn2c(/C=C/c3ccccc3)nc3ccccc32)c1`, > 26 µM (inactive). In the case of `Cc1cc(N2CCN(S(=O)(=O)c3ccc(Cl)cc3)CC2)c2ccccc2n1` it was > 12 µM (inactive); in that of `Cn1nc(C(C)(C)C)cc1C(=O)NCc1ccc(N2CCCC2=O)cc1`, > 26 µM (inactive); in that of `C=CCN1C(=O)N/C(=C/c2ccc(N3CCOCC3)o2)C1=O`, > 12 µM (inactive). In the case of `NS(=O)(=O)c1ccc(N/N=C/c2cn(-c3ccccc3)nc2-c2cccs2)c([N+](=O)[O-])c1` it was 19 µM; in that of `CCCCNC(=O)c1ccc(Cn2c(=S)[nH]c3c([nH]c4ccc(OC)cc43)c2=O)cc1`, > 26 µM (inactive); in that of `Cc1sc2ncnc(NC3CCN(Cc4ccccc4)CC3)c2c1C`, > 26 µM (inactive). Turning to `COc1ccccc1NS(=O)(=O)c1cccc(NC(=O)c2[nH]c(C)c(C(C)=O)c2C)c1`, the AC50 is > 26 µM (inactive). As for `COc1ccc(-n2cc(-c3ccc(C)cc3)[n+]3c2SCC3)cc1`, the figure is > 26 µM (inactive); as for `O=C(NCCc1ccccc1)[C@@H]1CC=C[C@@H]2CCN(Cc3ccc(Cl)c(Cl)c3)C(=O)[C@@H]21`, > 12 µM (inactive). In the case of `COc1cc(OC)c2cc(C(=O)N/N=C/c3cccc(OC)c3O)[nH]c2c1` it was > 26 µM (inactive).

As to `O=[N+]([O-])c1ccc(-c2nc3ccc([N+](=O)[O-])cc3[nH]2)cc1`, the AC50 was > 26 µM (inactive). For `O=C(N/N=C/c1ccc(O)cc1O)c1ccc(CN2C(=O)c3cccc4cccc2c34)cc1`, the AC50 was > 26 µM (inactive). As for `Cc1ccc(S(=O)(=O)NCc2ccncc2)c(C)c1C`, the figure is > 26 µM (inactive). In the case of `CCCCCCCCCCCCCCCC[N+](C)(C)C` it was > 26 µM (inactive); in that of `N#CC(C#N)=C(Nc1ccc(F)cc1)SCc1cccc(Br)c1`, > 26 µM (inactive). In the case of `Cc1ccc(Cn2c(=N)n(CC(=O)c3ccccc3)c3ccccc32)cc1`, the AC50 is > 26 µM (inactive). As for `CC1=NN(c2nc3ccccc3[nH]2)C(=O)C1Cc1ccccc1` (centres undefined), the figure is > 26 µM (inactive); as for `Cc1cc(Nc2cccc(Cl)c2)nc(NCc2ccccc2)n1`, > 26 µM (inactive). In the case of `Cc1cc(-c2ccccc2)cc(-c2ccccc2)[n+]1CCc1ccccc1` it was > 26 µM (inactive); in that of `Oc1cccc(C(Nc2nccs2)c2ccc3cccnc3c2O)c1` (centres undefined), > 26 µM (inactive).

Turning to `CCc1ccc(S(=O)(=O)/N=C2\C=C(Nc3ccc(O)cc3)C(=O)c3ccccc32)cc1`, the AC50 is > 26 µM (inactive). In the case of `O=C1/C(=N\S(=O)(=O)c2cccs2)C([n+]2cccc(Cc3ccccc3)c2)=C([O-])c2ccccc21` it was > 26 µM (inactive); in that of `Cc1ccc(NNC(=O)c2ccno2)cc1Cl`, > 26 µM (inactive); in that of `CCOC(=O)COc1ccc2ccccc2c1/C=C/[N+](=O)[O-]`, > 26 µM (inactive). In the case of `N#CC(C#N)=C(Nc1ccc(F)cc1)SCc1cccc(F)c1` it was > 26 µM (inactive); in that of `COc1cc(N/N=C/c2ccccc2O)ncn1`, > 26 µM (inactive); in that of `COc1cccc(/C=N/Nc2cc(C)nc(-c3ccccc3O)n2)c1O`, > 26 µM (inactive). In the case of `O=C(c1ccc(Cl)cc1)C(CN1CCCCC1)c1ccccc1` (centres undefined) it was > 26 µM (inactive); in that of `O=C(Oc1c(CN2CCOCC2)cc(Cl)c2cccnc12)c1ccc(F)cc1`, > 26 µM (inactive); in that of `COc1ccccc1OCCCCOc1ccccc1C(C)=O`, > 26 µM (inactive). With `CCCCCCCCn1c(=O)c(C(=O)OC)c(N)c2ccccc21`, the AC50 was > 26 µM (inactive). As for `CCOC(=O)[C@@H]1[C@H]2COc3cc(OC)ccc3[C@H]2N2C(=O)N(c3ccc(C(F)(F)F)cc3)C(=O)[C@]12C`, the figure is > 26 µM (inactive). With `O=C(NNc1c(Cl)cc(Cl)cc1Cl)c1cccc([N+](=O)[O-])c1`, the AC50 is > 26 µM (inactive). For `CC(=O)SC1CC(=O)N(c2c(C)cccc2C)C1=O` (centres undefined), the AC50 is > 26 µM (inactive). In the case of `COc1cccc(/C=N/Nc2cc(N3CCOCC3)ncn2)c1O` it was > 26 µM (inactive).

For `COc1ccc(C)cc1Nc1n[n+](-c2ccccc2)c(-c2ccc(OC)c(OC)c2OC)s1`, the AC50 is > 26 µM (inactive). In the case of `COc1ccc(-[n+]2c(-c3ccccc3)cc(-c3ccccc3)cc2-c2ccccc2)cc1` it was > 26 µM (inactive); in that of `C=CCC1(CC=C)CCCN1C(=O)c1cc(COc2ccc(C)nc2)on1`, > 26 µM (inactive).
